# Experimental data as given in patent US8415158B2, “Compositions and methods useful for culturing differentiable cells” (ViaCyte, Inc., priority 2006, dated 2013).
# What was measured:
# R1 mouse ES cells = experiment: Proliferation of R1 mouse ES cells with ErbB tyrosine kinase inhibitors, alkaline phosphatase staining; assay type: cell-based
# Experimental: AG1478 and AG879 were used to examine the role of HRG/ErbB signaling in mouse ES cells. R1 mouse ES cells were maintained in standard conditions in DMEM, 10% FBS, 10% KSR, 0.5 U/ml penicillin, 0.5 U/ml streptomycin, 1×NEAA, 1 mM sodium pyruvate, 1000 U/ml LIF (ESGRO), 0.1 mM 13-ME, and were passaged with 0.5% trypsin/EDTA. 2×10^5 cells/well were plated in 6 well trays on […]™ diluted at 1:1000. The day after plating, DMSO (carrier control), 1-50 μM AG1478, or 1-50 μM AG879 was added with fresh medium. The cells were cultured an additional 8 days, with daily media changes. The cultures were then fixed and stained for alkaline phosphatase activity.
# BG01v cells = experiment: Proliferation of BG01v cells with ErbB tyrosine kinase inhibitors, alkaline phosphatase staining; assay type: cell-based; details: 5 days
# Experimental: To examine the effect of known inhibitors of ErbB tyrosine kinases in hESCs, BG01 v cells were plated in 6 well trays on […]™ diluted at 1:1000, in defined culture medium (DC) containing 100 ng/ml LongR3-IGF1, 8 ng/ml FGF2 and 1 ng/ml Activin A. On the next day, DMSO (carrier control), 50 nM-20 μM AG1478 (an ErbB1 inhibitor), or 100 nM-20 μM AG879 (an ErbB2 inhibitor) was added with fresh medium. The cells were cultured for an additional 5 days, with daily media changes. The cultures were then fixed and stained for alkaline phosphatase activity.
# hESCs = experiment: Titration of insulin and IGF1 at physiological levels, hESC proliferation; assay type: cell-based, human; details: titrated from about 0.2 to about 200 ng/ml, cells counted after 5 days
# Experimental: Essentially all of the reported culture conditions for hESCs to date include supraphysiological levels of insulin, which can stimulate both IR and IGF1R. To distinguish the activities that insulin and insulin-substitutes exert, compared to IGF1, hESCs are cultured in defined media conditions in physiological levels of these growth factors. The concentrations of insulin and IGF1 are titrated from about 0.2 to about 200 ng/ml and cell proliferation is monitored by counting cells after 5 days. Cultures that expand successfully are serially passaged 5 times.
# ES cells = experiment: Suspension cultures in various media, cell counting; assay type: cell-based; details: added to HAIF, HAI and HI conditions
# Experimental: To determine if suspensions of ES cells could be cultured in the absence of FGF2 and/or Activin A, ES cells were cultured in a variety of media, with and without these factors. […] In addition, the cells in each media were successfully passaged with no morphological signs of differentiation.
# BG02 cells = experiment: Suspension culture of BG02 cells with and without apoptosis inhibitor, cell counting; assay type: cell-based, human
# Experimental: Starting cultures of BG02 cells were maintained in DC-HAIF medium on dishes coated with 1:200 matrigel, as described herein and were split by passaging with ACCUTASE™. To initiate suspension culture, BG02 cells were disaggregated with ACCUTASE™ and placed in low attachment 6-well trays at a density of 1.6, 3, or 6×10^5 cells/ml (0.5, 1, or 2×10^6 cells in 3 ml volumes) in DC-HAIF medium. The trays were placed on a rotating platform at 80-100 rpm in a humidified incubator with 5% CO2. Under these conditions hESCs coalesced into small spheres of morphologically viable cells within 24 hours.
# To attenuate the loss of cells after initial passaging in suspension, an inhibitor of apoptosis was added to the medium. Cells were passaged as in Example 12, except that Y-27632, an inhibitor of p160-Rho-associated coiled-coil kinase (ROCK), was added to the medium.
# Suspension aggregates of BG02 cells were formed by seeding 2×10^6 single cells in 6-well dishes in 3 ml DC-HAIF medium, at 100 rpm on a rotating platform in an incubator (Table 2, Experiment A). 10 μM Y27632 ROCK inhibitor was added to test wells for the course of the experiment and the cultures observed daily and counted after 24 hours (day 1) and after 4 or 5 days. […] Cell counting confirmed that more viable cells were present in the presence of inhibitor (Table 2, Experiment A). This difference in cell number persisted throughout the course of the culture period, with more cells also observed on day 4, compared to cultures without inhibitor. As with previous suspension culture experiments, cells exposed to Y27632 could also be serially passaged, and maintained in an undifferentiated state (not shown).
# As previous experiments had shown that growth rates of cells in suspension and adherent culture were similar after the initial 24 hours, an experiment was performed where Y27632 was removed after this initial period (Table 2, Experiment B). […] 1.4×10^7 (+Y27632) and 1.8×10^7 (+/−Y27632) viable cells were generated when inhibitor was present compared to 3.9×10^6 cells in untreated cultures. This analysis confirmed that Y27632 had the largest impact during the first 24 hours of suspension hESC culture.
# Because of the enhanced survival and aggregation observed in the presence of Y27632, an experiment was performed to examine if it was possible to reduce the number of cells used to seed suspension cultures (Table 2, Experiment C). […] To determine if addition of a ROCK inhibitor would allow cell seeding at lower densities, a range of cell concentrations (from about 2×10^6 total cells down to about 1×10^5 total cells was used to seed suspension cultures in 6-well trays cells in 3 ml DC-HAIF. 10 μM Y27632 was added to all conditions, and the cell number and viability assessed on day 5. Successful aggregation and expansion was observed even at low seeding densities. An approxiate 13 fold expansion of viable cells was observed even cultures that were only seeded with 1×10^5 cells. Inhibition of ROCK with Y27632 therefore facilitated initial survival of hESCs at much lower densities in this suspension system.
# ErbB2 = molecular target: T1, ErbB2 (Homo sapiens, UniProt P04626); experiment: Western blotting of ErbB2 autophosphorylation in starved/heregulin pulsed hESCs; assay type: cell-based; details: starved/heregulin pulsed hESCs growing in DC-HAIF
# T1 construct: endogenous in cells; host or cells: human embryonic stem cells (hESCs) grown in DC-HAIF
# From the text: (§1) Colony and cell-counting assays confirmed that LongR3-IGF1 and HRG played the major roles in self-renewal and proliferation in the context of one of the embodiments of the present invention (FIGS. 6D, 6E). Phosphorylation of IGF1R, IR, FGF2a, ErbB2, and ErbB3 was also observed in both steady-state DC-HAIF cultures, and in starved cultures that were pulsed with DC-HAIF (FIG. 6F).
# BG02 hESCs = experiment: Proliferation of hESCs growing in conditioned medium with AG825; assay type: cell-based, human; details: 50 μM (FIG. 6A)
# From the text: as §1
# [1] = Expt. A, seeding 2 × 10^6, p0, day 1
# [2] = Expt. A, seeding 2 × 10^6, p0, day 4
# [3] = Expt. B, seeding 2 × 10^6, p0, day 1
# [4] = Expt. B, seeding 2 × 10^6, p0, day 5
# [5] = Expt. B, seeding 2 × 10^6, p0, day 5, Y27632 removed after 24 hours
# [6] = Expt. C, seeding 1 × 10^6, p0, day 1
# [7] = Expt. C, seeding 1 × 10^6, p0, day 5
# [8] = Expt. C, seeding 2 × 10^6, p0, day 1
# [9] = Expt. C, seeding 2 × 10^6, p0, day 5
# [10] = Expt. C, seeding 2.5 × 10^5, p0, day 1
# [11] = Expt. C, seeding 2.5 × 10^5, p0, day 5
# [12] = Expt. C, seeding 5 × 10^5, p0, day 1
# [13] = Expt. C, seeding 5 × 10^5, p0, day 5
# [14] = Expt. C, seeding 10^5, p0, day 1
# [15] = Expt. C, seeding 10^5, p0, day 5
# T1 sequence (P04626 23-1255): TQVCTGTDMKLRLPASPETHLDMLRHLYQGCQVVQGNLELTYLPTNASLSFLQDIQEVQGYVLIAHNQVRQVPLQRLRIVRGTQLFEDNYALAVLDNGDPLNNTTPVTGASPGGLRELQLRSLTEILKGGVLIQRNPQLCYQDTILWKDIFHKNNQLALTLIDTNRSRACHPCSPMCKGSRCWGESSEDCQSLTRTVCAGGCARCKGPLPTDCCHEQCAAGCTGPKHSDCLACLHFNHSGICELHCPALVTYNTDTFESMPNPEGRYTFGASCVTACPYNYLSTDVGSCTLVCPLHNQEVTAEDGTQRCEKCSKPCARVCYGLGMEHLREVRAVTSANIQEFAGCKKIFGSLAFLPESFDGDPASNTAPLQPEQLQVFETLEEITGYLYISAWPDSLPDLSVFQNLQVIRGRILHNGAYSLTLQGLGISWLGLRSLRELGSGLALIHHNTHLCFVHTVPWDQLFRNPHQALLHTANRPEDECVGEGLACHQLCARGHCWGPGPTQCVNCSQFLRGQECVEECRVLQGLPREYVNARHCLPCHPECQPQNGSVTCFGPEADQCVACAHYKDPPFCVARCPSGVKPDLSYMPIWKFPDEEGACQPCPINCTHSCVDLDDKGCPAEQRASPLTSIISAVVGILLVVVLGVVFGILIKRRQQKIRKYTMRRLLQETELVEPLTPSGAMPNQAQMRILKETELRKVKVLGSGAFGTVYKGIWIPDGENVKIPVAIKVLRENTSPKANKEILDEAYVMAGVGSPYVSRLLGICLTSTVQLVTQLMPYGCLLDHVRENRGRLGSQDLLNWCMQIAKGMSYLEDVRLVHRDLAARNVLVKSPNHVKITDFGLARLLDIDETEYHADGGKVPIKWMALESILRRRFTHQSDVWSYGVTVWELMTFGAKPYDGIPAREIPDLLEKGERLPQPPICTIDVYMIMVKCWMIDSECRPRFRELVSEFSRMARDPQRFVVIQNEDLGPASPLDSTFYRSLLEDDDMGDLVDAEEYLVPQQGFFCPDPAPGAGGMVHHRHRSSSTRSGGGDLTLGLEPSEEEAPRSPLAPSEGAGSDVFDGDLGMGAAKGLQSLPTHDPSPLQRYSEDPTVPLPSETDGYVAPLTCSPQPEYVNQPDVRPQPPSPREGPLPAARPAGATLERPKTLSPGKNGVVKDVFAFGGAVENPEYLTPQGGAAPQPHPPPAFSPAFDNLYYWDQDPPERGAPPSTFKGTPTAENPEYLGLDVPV
compound,measurement,setting,value
COc1cc2ncnc(Nc3cccc(Cl)c3)c2cc1OC [AG1478],effect on cell proliferation,"R1 mouse ES cells; 1-50 μM, 8 days, 10% FBS, 10% KSR, LIF",no apparent affect on cell proliferation
same,effect on cell proliferation,"BG01v cells; 50 nM-20 μM, DC medium with LongR3-IGF1, FGF2, Activin A",neither DMSO nor AG1478 (50 nM-20 μM) had an apparent affect on cell proliferation
IGF1: insulin-like growth factor,expansion of hESC cultures at physiological levels,hESCs,support the expansion of hESC cultures
insulin: protein that binds to the insulin receptor,expansion of hESC cultures at physiological levels,hESCs,do not
CC(C)(C)c1cc(/C=C(\C#N)C(N)=S)cc(C(C)(C)C)c1O [AG879],effect on proliferation,"R1 mouse ES cells; 20 μM, 8 days",may have slowed proliferation
same,effect on cell growth,"R1 mouse ES cells; 50 μM, 8 days",substantially inhibited cell growth
same,"concentration required to inhibit proliferation, mESCs relative to BG01v cells",R1 mouse ES cells; higher for mESCs than for BG01v cells in defined conditions,~10 ×
same,effect on cell growth,BG01v cells; 5 μM,substantially inhibited cell growth
same,cell death,BG01v cells; 20 μM,caused cell death
C[C@@H](N)[C@H]1CC[C@H](C(=O)Nc2ccncc2)CC1 [Y27632],yield of cells generated by day 5,ES cells,increased the yield of cells
same,size of aggregates in initial aggregation phase of suspension culture,"BG02 cells; 10 μM, compared to medium without inhibitor",much larger aggregates were formed
same,initial survival and aggregation of hESCs after initial passage,"BG02 cells; 10 μM, first 24 hours",enhanced initial survival and aggregation of hESCs
same,cells observed when the aggregates were split again,"BG02 cells; Expt. A, 10 μM, versus without inhibitor",almost twice as many cells
same,Cell counts: total,"BG02 cells; Expt. A, p1, day 4",4.6 × 10^6 cells
same,Cell counts: viable,"BG02 cells; Expt. A, p1, day 4",4.2 × 10^6 cells
same,"viable cells, %","BG02 cells; Expt. A, p1, day 4",91%
same,Cell counts: total,BG02 cells; [1],1.6 × 10^6 cells
same,Cell counts: viable,BG02 cells; [1],1.2 × 10^6 cells
same,"viable cells, %",BG02 cells; [1],74%
same,Cell counts: total,BG02 cells; [2],7.8 × 10^6 cells
same,Cell counts: viable,BG02 cells; [2],7.1 × 10^6 cells
same,"viable cells, %",BG02 cells; [2],91%
same,Cell counts: total,BG02 cells; [3],1.9 × 10^6 cells
same,Cell counts: viable,BG02 cells; [3],1.4 × 10^6 cells
same,"viable cells, %",BG02 cells; [3],73%
same,Cell counts: total,BG02 cells; [4],1.5 × 10^7 cells
same,Cell counts: viable,BG02 cells; [4],1.4×10^7 cells
same,"viable cells, %",BG02 cells; [4],92%
same,Cell counts: total,BG02 cells; [5],1.9 × 10^7 cells
same,Cell counts: viable,BG02 cells; [5],1.8×10^7 cells
same,"viable cells, %",BG02 cells; [5],96%
same,Cell counts: total,BG02 cells; [6],8.7 × 10^5 cells
same,Cell counts: viable,BG02 cells; [6],6.6 × 10^5 cells
same,"viable cells, %",BG02 cells; [6],76%
same,Cell counts: total,BG02 cells; [7],8.6 × 10^6 cells
same,Cell counts: viable,BG02 cells; [7],7.8 × 10^6 cells
same,"viable cells, %",BG02 cells; [7],91%
same,Cell counts: total,BG02 cells; [8],1.9 × 10^6 cells
same,Cell counts: viable,BG02 cells; [8],1.6 × 10^6 cells
same,"viable cells, %",BG02 cells; [8],84%
same,Cell counts: total,BG02 cells; [9],1.4 × 10^7 cells
same,Cell counts: viable,BG02 cells; [9],1.2 × 10^7 cells
same,"viable cells, %",BG02 cells; [9],90%
same,Cell counts: total,BG02 cells; [10],2.6 × 10^5 cells
same,Cell counts: viable,BG02 cells; [10],2.3 × 10^5 cells
same,"viable cells, %",BG02 cells; [10],91%
same,Cell counts: total,BG02 cells; [11],2.7 × 10^6 cells
same,Cell counts: viable,BG02 cells; [11],2.5 × 10^6 cells
same,"viable cells, %",BG02 cells; [11],91%
same,Cell counts: total,BG02 cells; [12],4.6 × 10^5 cells
same,Cell counts: viable,BG02 cells; [12],3.5 × 10^5 cells
same,"viable cells, %",BG02 cells; [12],75%
same,Cell counts: total,BG02 cells; [13],5.7 × 10^6 cells
same,Cell counts: viable,BG02 cells; [13],5.3 × 10^6 cells
same,"viable cells, %",BG02 cells; [13],93%
same,Cell counts: total,BG02 cells; [14],6.8 × 10^4 cells
same,Cell counts: viable,BG02 cells; [14],5.4 × 10^4 cells
same,"viable cells, %",BG02 cells; [14],79%
same,Cell counts: total,BG02 cells; [15],1.4 × 10^6 cells
same,Cell counts: viable,BG02 cells; [15],1.3 × 10^6 cells
same,"viable cells, %",BG02 cells; [15],92%
same,expansion of viable cells,"BG02 cells; seeded with 1×10^5 cells, 10 μM Y27632, day 5",~13 fold
COc1cc(/C=C(\C#N)C(N)=O)cc(CSc2nc3ccccc3s2)c1O [AG825],autophosphorylation of ErbB2 at tyrosine-1248,ErbB2,inhibited autophosphorylation
same,effect on proliferation of hESCs growing in conditioned medium (CM),BG02 hESCs,significantly inhibited proliferation
